Assay results taken from patent US11471474B2, “Pharmaceutical or cosmetic composition for preventing or treating hair loss or promoting hair growth” (priority 2018, dated 2022).

System: human hair dermal papilla cells (HHDPC)
Experiment: MTT cytotoxicity test of cADPR in human hair dermal papilla cells
Format: cell-based
Conditions: cADPR in the concentration range according to the invention (0.01 to 2 ppm tested), 48 hours
Protocol: To confirm cytotoxicity of cADPR in human hair dermal papilla cells (HHDPC), MTT assay which is a representative method for measuring cytotoxicity and determines cytotoxicity by measuring mitochondrial reducing power by dehydrogenase action was conducted.
Human hair dermal papilla cells were cultured in an HDP kit medium (Human hair dermal papilla cell media kit) at 37° C. in a 5% CO2 incubator (manufactured by Thermo Fisher Scientific, USA).
The cultured cells were dispensed into a 24-well plate at a concentration of 3×10^4 cells/well. After 18 hours, the cADPR mixture solutions according to Preparation Examples 1-1 to 1-6 (0.01, 0.05, 0.1, 0.5, 1 and 2 ppm, respectively) were added to each well. Then, the cells were cultured in the 5% CO2 incubator at 37° C. for 48 hours. After 48 hours of the incubation, each well was washed once with PBS (phosphate buffered saline) solution, and added with 50 μl of 5 mg/mL MTT reagent (Sigma, USA) and 450 μl of fresh medium. The wells were incubated for 2.5 hours and then supernatants were removed.

Q: How did the cytotoxicity turn out when N=c1c2ncn3c2ncn1[C@@H]1O[C@H](COP(=O)(O)OP(=O)(O)OC[C@H]2O[C@@H]3[C@H](O)[C@@H]2O)[C@@H](O)[C@H]1O [cADPR, Cyclic ADP Ribose] was run?
A: Its cytotoxicity is “no cytotoxicity was observed”.
